Laboratory results reported in patent publication US20140094424A1, “MICROBICIDAL COMPOSITIONS AND METHODS OF PRODUCTION USE THEREOF” (priority 2011, published 2014).
Like-named read-outs stand apart in the source and are kept apart here.

Assays:
Ralstonia pickettii (AU) = assay type: cell-based
Procedure: The stock organisms were thawed and subbed prior to beginning the MBC test. Molds were subbed to SDA plates one week before, and the bacteria were subbed to TAT agar plates 24 hours prior to the start of the test. All plates were incubated at 32 degrees C.
Each bacterial organism was inoculated into 40 ml sterile saline in a centrifuge tube to create a density of MacFarland #1. Two serial dilutions of 1:100 were then made, resulting in 10^−2 and 10^−4 concentrations. Each dilution was vortexed before it was sampled, and sterile Eppendorf pipette tips were used to make each transfer. The 10^−4 dilution was spiral plated to yield the initial inoculum concentration.
MBC trays were set up with the prepared test reagent. Using a Matrix pipettor, 100 μl aliquots of reagent were distributed into the wells, diluting the amount of preservative from 100% to 10% increments, using unpreserved reagent as the diluent. In one row, 100% non-preserved reagent acted as a positive control and served as a benchmark for a full mat of growth. In well #12H, 100 μl unpreserved reagent was pipetted, and this well was not inoculated with organisms, as it served as the negative control. Once all of the trays were prepared, the prepared bacteria/mold suspensions were poured into the MBC inoculating trays. These were placed onto the reagent trays, and 0.01 ml inoculum was introduced into the 100 μl of reagent in each well.
This was done by dipping a sterile cotton swab into each well, and absorbing all of the liquid in the well. The swab was rolled onto a TAT agar plate ensuring that the entire swab touches the agar. Plates ware incubated at 32 degrees C. for 48 hours to 7 days, depending on the organism. Observations for growth were performed by a scoring matrix using + for a full mat, +/− for some growth, a numerical value for an actual colony count, and—for no growth.
Below are tables that contain the data obtained in Example 1. The MBC test is scored by (+) indicating a full grown mat of organisms, equivalent to the organisms in the unpreserved reagent. (+/−) indicates there is some kill evident disturbing that mat or bringing the quantities down to an almost countable level. An actual number is the actual number of colonies growing at that concentration of preservative. (−) indicates no growth found. The MBC trays were stored at room temperature for the entire test.
The materials and methods and analysis of the MBC test were the same as in Example 1.

[1] = test system: creatinine biosensor (creatinine amidohydrolase, creatinine amidinohydrolase and sarcosine oxidase); experiment: Effect on enzymatic activity of a creatinine biosensor (rate of O2% decrease); assay type: biochemical; conditions: 210 μM gentamicin, FIG. 1
Procedure: In FIG. 1, the effects of various concentrations of gentamicin on the enzymatic activity of a creatinine biosensor (comprising the three enzymes creatinine amidohydrolase, creatinine amidinohydrolase and sarcosine oxidase) were determined. In FIG. 2, the effects of various concentrations of propionate on the enzymatic activity of a creatinine biosensor (comprising three enzymes) were determined.
In both instances, a decreasing rate of O2% is an indicator of enzyme activity; the faster the rate of O2% decrease, the higher enzymatic activity is.

gentamicin
MBC test growth score (Ralstonia pickettii (AU); 10% preservative, 8 hour): − | MBC test growth score (Ralstonia pickettii (AU); 10% preservative, 24 hour): − | MBC test growth score (Ralstonia pickettii (AU); 10% preservative, 48 hour): − | MBC test growth score (Ralstonia pickettii (AU); 10% preservative, 72 hour): − | MBC test growth score (Ralstonia pickettii (AU); 20% preservative, 8 hour): − | MBC test growth score (Ralstonia pickettii (AU); 20% preservative, 24 hour): − | MBC test growth score (Ralstonia pickettii (AU); 20% preservative, 48 hour): − | MBC test growth score (Ralstonia pickettii (AU); 20% preservative, 72 hour): − | MBC test growth score (Ralstonia pickettii (AU); 30% preservative, 8 hour): − | MBC test growth score (Ralstonia pickettii (AU); 30% preservative, 24 hour): − | MBC test growth score (Ralstonia pickettii (AU); 30% preservative, 48 hour): − | MBC test growth score (Ralstonia pickettii (AU); 30% preservative, 72 hour): − | MBC test growth score (Ralstonia pickettii (AU); 40% preservative, 8 hour): − | MBC test growth score (Ralstonia pickettii (AU); 40% preservative, 24 hour): − | MBC test growth score (Ralstonia pickettii (AU); 40% preservative, 48 hour): − | MBC test growth score (Ralstonia pickettii (AU); 40% preservative, 72 hour): − | MBC test growth score (Ralstonia pickettii (AU); 50% preservative, 8 hour): − | MBC test growth score (Ralstonia pickettii (AU); 50% preservative, 24 hour): − | MBC test growth score (Ralstonia pickettii (AU); 50% preservative, 48 hour): − | MBC test growth score (Ralstonia pickettii (AU); 50% preservative, 72 hour): − | MBC test growth score (Ralstonia pickettii (AU); 60% preservative, 8 hour): − | MBC test growth score (Ralstonia pickettii (AU); 60% preservative, 24 hour): − | MBC test growth score (Ralstonia pickettii (AU); 60% preservative, 48 hour): − | MBC test growth score (Ralstonia pickettii (AU); 60% preservative, 72 hour): − | MBC test growth score (Ralstonia pickettii (AU); 70% preservative, 8 hour): − | MBC test growth score (Ralstonia pickettii (AU); 70% preservative, 24 hour): − | MBC test growth score (Ralstonia pickettii (AU); 70% preservative, 48 hour): − | MBC test growth score (Ralstonia pickettii (AU); 70% preservative, 72 hour): − | MBC test growth score (Ralstonia pickettii (AU); 80% preservative, 8 hour): − | MBC test growth score (Ralstonia pickettii (AU); 80% preservative, 24 hour): − | MBC test growth score (Ralstonia pickettii (AU); 80% preservative, 48 hour): − | MBC test growth score (Ralstonia pickettii (AU); 80% preservative, 72 hour): − | MBC test growth score (Ralstonia pickettii (AU); 90% preservative, 8 hour): − | MBC test growth score (Ralstonia pickettii (AU); 90% preservative, 24 hour): − | MBC test growth score (Ralstonia pickettii (AU); 90% preservative, 48 hour): − | MBC test growth score (Ralstonia pickettii (AU); 90% preservative, 72 hour): − | MBC test growth score (Ralstonia pickettii (AU); 100% preservative, 8 hour): − | MBC test growth score (Ralstonia pickettii (AU); 100% preservative, 24 hour): − | MBC test growth score (Ralstonia pickettii (AU); 100% preservative, 48 hour): − | MBC test growth score (Ralstonia pickettii (AU); 100% preservative, 72 hour): − | effect on enzymatic activity of the three enzymes in the creatinine biosensor [1]: did not inactivate enzymatic activity

[N-]=[N+]=[N-] [Sodium Azide, sodium azide]
MBC test growth score (Ralstonia pickettii (AU); 10% preservative, 8 hour): + | MBC test growth score (Ralstonia pickettii (AU); 10% preservative, 24 hour): + | MBC test growth score (Ralstonia pickettii (AU); 10% preservative, 48 hour): + | MBC test growth score (Ralstonia pickettii (AU); 10% preservative, 72 hour): + | MBC test growth score (Ralstonia pickettii (AU); 20% preservative, 8 hour): + | MBC test growth score (Ralstonia pickettii (AU); 20% preservative, 24 hour): + | MBC test growth score (Ralstonia pickettii (AU); 20% preservative, 48 hour): + | MBC test growth score (Ralstonia pickettii (AU); 20% preservative, 72 hour): +/− | MBC test growth score (Ralstonia pickettii (AU); 30% preservative, 8 hour): + | MBC test growth score (Ralstonia pickettii (AU); 30% preservative, 24 hour): + | MBC test growth score (Ralstonia pickettii (AU); 30% preservative, 48 hour): +/− | MBC test growth score (Ralstonia pickettii (AU); 30% preservative, 72 hour): +/− | MBC test growth score (Ralstonia pickettii (AU); 40% preservative, 8 hour): + | MBC test growth score (Ralstonia pickettii (AU); 40% preservative, 24 hour): + | MBC test growth score (Ralstonia pickettii (AU); 40% preservative, 48 hour): +/− | MBC test growth score (Ralstonia pickettii (AU); 40% preservative, 72 hour): +/− | MBC test growth score (Ralstonia pickettii (AU); 50% preservative, 8 hour): + | MBC test growth score (Ralstonia pickettii (AU); 50% preservative, 24 hour): + | MBC test growth score (Ralstonia pickettii (AU); 50% preservative, 48 hour): +/− | MBC test growth score (Ralstonia pickettii (AU); 50% preservative, 72 hour): +/− | MBC test growth score (Ralstonia pickettii (AU); 60% preservative, 8 hour): + | MBC test growth score (Ralstonia pickettii (AU); 60% preservative, 24 hour): + | MBC test growth score (Ralstonia pickettii (AU); 60% preservative, 48 hour): +/− | MBC test growth score (Ralstonia pickettii (AU); 60% preservative, 72 hour): 10 | MBC test growth score (Ralstonia pickettii (AU); 70% preservative, 8 hour): + | MBC test growth score (Ralstonia pickettii (AU); 70% preservative, 24 hour): + | MBC test growth score (Ralstonia pickettii (AU); 70% preservative, 48 hour): +/− | MBC test growth score (Ralstonia pickettii (AU); 70% preservative, 72 hour): 8 | MBC test growth score (Ralstonia pickettii (AU); 80% preservative, 8 hour): + | MBC test growth score (Ralstonia pickettii (AU); 80% preservative, 24 hour): +/− | MBC test growth score (Ralstonia pickettii (AU); 80% preservative, 48 hour): +/− | MBC test growth score (Ralstonia pickettii (AU); 80% preservative, 72 hour): 7 | MBC test growth score (Ralstonia pickettii (AU); 90% preservative, 8 hour): + | MBC test growth score (Ralstonia pickettii (AU); 90% preservative, 24 hour): +/− | MBC test growth score (Ralstonia pickettii (AU); 90% preservative, 48 hour): +/− | MBC test growth score (Ralstonia pickettii (AU); 90% preservative, 72 hour): 4 | MBC test growth score (Ralstonia pickettii (AU); 100% preservative, 8 hour): + | MBC test growth score (Ralstonia pickettii (AU); 100% preservative, 24 hour): +/− | MBC test growth score (Ralstonia pickettii (AU); 100% preservative, 48 hour): +/− | MBC test growth score (Ralstonia pickettii (AU); 100% preservative, 72 hour): 2 | total kill at % preservative (MBC) (Ralstonia pickettii (AU); at 72 hours, listed as Na Azide): No kill @ 100%

Cc1cc(NS(=O)(=O)c2ccc(N)cc2)no1 [Sulfamethoxazole, sulfamethoxazole]
MBC test growth score (Ralstonia pickettii (AU); 10% preservative, 8 hour): + | MBC test growth score (Ralstonia pickettii (AU); 10% preservative, 24 hour): + | MBC test growth score (Ralstonia pickettii (AU); 10% preservative, 48 hour): + | MBC test growth score (Ralstonia pickettii (AU); 10% preservative, 72 hour): + | MBC test growth score (Ralstonia pickettii (AU); 20% preservative, 8 hour): + | MBC test growth score (Ralstonia pickettii (AU); 20% preservative, 24 hour): + | MBC test growth score (Ralstonia pickettii (AU); 20% preservative, 48 hour): + | MBC test growth score (Ralstonia pickettii (AU); 20% preservative, 72 hour): + | MBC test growth score (Ralstonia pickettii (AU); 30% preservative, 8 hour): + | MBC test growth score (Ralstonia pickettii (AU); 30% preservative, 24 hour): + | MBC test growth score (Ralstonia pickettii (AU); 30% preservative, 48 hour): + | MBC test growth score (Ralstonia pickettii (AU); 30% preservative, 72 hour): + | MBC test growth score (Ralstonia pickettii (AU); 40% preservative, 8 hour): + | MBC test growth score (Ralstonia pickettii (AU); 40% preservative, 24 hour): + | MBC test growth score (Ralstonia pickettii (AU); 40% preservative, 48 hour): + | MBC test growth score (Ralstonia pickettii (AU); 40% preservative, 72 hour): + | MBC test growth score (Ralstonia pickettii (AU); 50% preservative, 8 hour): + | MBC test growth score (Ralstonia pickettii (AU); 50% preservative, 24 hour): + | MBC test growth score (Ralstonia pickettii (AU); 50% preservative, 48 hour): + | MBC test growth score (Ralstonia pickettii (AU); 50% preservative, 72 hour): + | MBC test growth score (Ralstonia pickettii (AU); 60% preservative, 8 hour): + | MBC test growth score (Ralstonia pickettii (AU); 60% preservative, 24 hour): + | MBC test growth score (Ralstonia pickettii (AU); 60% preservative, 48 hour): + | MBC test growth score (Ralstonia pickettii (AU); 60% preservative, 72 hour): + | MBC test growth score (Ralstonia pickettii (AU); 70% preservative, 8 hour): + | MBC test growth score (Ralstonia pickettii (AU); 70% preservative, 24 hour): + | MBC test growth score (Ralstonia pickettii (AU); 70% preservative, 48 hour): + | MBC test growth score (Ralstonia pickettii (AU); 70% preservative, 72 hour): + | MBC test growth score (Ralstonia pickettii (AU); 80% preservative, 8 hour): + | MBC test growth score (Ralstonia pickettii (AU); 80% preservative, 24 hour): + | MBC test growth score (Ralstonia pickettii (AU); 80% preservative, 48 hour): + | MBC test growth score (Ralstonia pickettii (AU); 80% preservative, 72 hour): + | MBC test growth score (Ralstonia pickettii (AU); 90% preservative, 8 hour): + | MBC test growth score (Ralstonia pickettii (AU); 90% preservative, 24 hour): + | MBC test growth score (Ralstonia pickettii (AU); 90% preservative, 48 hour): + | MBC test growth score (Ralstonia pickettii (AU); 90% preservative, 72 hour): + | MBC test growth score (Ralstonia pickettii (AU); 100% preservative, 8 hour): + | MBC test growth score (Ralstonia pickettii (AU); 100% preservative, 24 hour): + | MBC test growth score (Ralstonia pickettii (AU); 100% preservative, 48 hour): + | MBC test growth score (Ralstonia pickettii (AU); 100% preservative, 72 hour): +
